# Laboratory results as given in ChEMBL document CHEMBL3856212, “Synthesis, anti-proliferative and genotoxicity studies of 6-chloro-5-(2-substituted-ethyl)-1,3-dihydro-2H-indol-2-ones and 6-chloro-5-(2-chloroethyl)-3-(alkyl/ary-2-ylidene)indolin-2-ones” (Eur J Med Chem, 2016).
# Experiments:
# Format in all cases: functional
# [1] = Cytotoxicity against human CCRF-CEM cells assessed as growth inhibition after 48 hrs by SRB assay; conditions: for CC50: read-out: LD50 (the source's name)
# [2] = Cytotoxicity against human K562 cells assessed as growth inhibition after 48 hrs by SRB assay; conditions: K562, 48 h; for CC50: read-out: LD50 (the source's name)
# [3] = Cytotoxicity against human MOLT4 cells assessed as growth inhibition after 48 hrs by SRB assay; conditions: MOLT-4, 48 h; for CC50: read-out: LD50 (the source's name)
# [4] = Cytotoxicity against human SR cells assessed as growth inhibition after 48 hrs by SRB assay; conditions: for CC50: read-out: LD50 (the source's name)
# [5] = Cytotoxicity against human HOP62 cells assessed as growth inhibition after 48 hrs by SRB assay; conditions: HOP-62, 48 h; for CC50: read-out: LD50 (the source's name)
# [6] = Cytotoxicity against human NCI-H23 cells assessed as growth inhibition after 48 hrs by SRB assay; conditions: NCI-H23, 48 h; for CC50: read-out: LD50 (the source's name)
# [7] = Cytotoxicity against human NCI-H460 cells assessed as growth inhibition after 48 hrs by SRB assay; conditions: NCI-H460, 48 h; for CC50: read-out: LD50 (the source's name)
# [8] = Cytotoxicity against human HCT15 cells assessed as growth inhibition after 48 hrs by SRB assay; conditions: HCT-15, 48 h; for CC50: read-out: LD50 (the source's name)
# [9] = Cytotoxicity against human SW620 cells assessed as growth inhibition after 48 hrs by SRB assay; conditions: SW-620, 48 h; for CC50: read-out: LD50 (the source's name)
# [10] = Cytotoxicity against human MDA-MB-435 cells assessed as growth inhibition after 48 hrs by SRB assay; conditions: MDA-MB-435, 48 h; for CC50: read-out: LD50 (the source's name)
# [11] = Cytotoxicity against human SK-MEL-28 cells assessed as growth inhibition after 48 hrs by SRB assay; conditions: SK-MEL-28, 48 h; for CC50: read-out: LD50 (the source's name)
# [12] = Cytotoxicity against human UACC62 cells assessed as growth inhibition after 48 hrs by SRB assay; conditions: UACC-62, 48 h; for CC50: read-out: LD50 (the source's name)
# [13] = Cytotoxicity against human OVCAR4 cells assessed as growth inhibition after 48 hrs by SRB assay; conditions: OVCAR-4, 48 h; for CC50: read-out: LD50 (the source's name)
# [14] = Cytotoxicity against human A498 cells assessed as growth inhibition after 48 hrs by SRB assay; conditions: A498, 48 h; for CC50: read-out: LD50 (the source's name)
# [15] = Cytotoxicity against human ACHN cells assessed as growth inhibition after 48 hrs by SRB assay; conditions: for CC50: read-out: LD50 (the source's name)
# [16] = Cytotoxicity against human DU145 cells assessed as growth inhibition after 48 hrs by SRB assay; conditions: DU-145, 48 h; for CC50: read-out: LD50 (the source's name)
# [17] = Cytotoxicity against human MCF7 cells assessed as growth inhibition after 48 hrs by SRB assay; conditions: MCF7, 48 h; for CC50: read-out: LD50 (the source's name)
# [18] = Cytotoxicity against human Hs 578T cells assessed as growth inhibition after 48 hrs by SRB assay; conditions: for CC50: read-out: LD50 (the source's name)
# [19] = Cytotoxicity against human BT549 cells assessed as growth inhibition after 48 hrs by SRB assay; conditions: BT-549, 48 h; for CC50: read-out: LD50 (the source's name)
# [20] = Cytotoxicity against human MDA-MB-468 cells assessed as growth inhibition after 48 hrs by SRB assay; conditions: MDA-MB-468, 48 h; for CC50: read-out: LD50 (the source's name)
# [21] = Cytotoxicity against human A549 cells assessed as assessed as growth inhibition at 10^-5 M after 48 hrs by SRB assay relative to control; conditions: A549, 48 h, read-out: GI
# [22] = Cytotoxicity against human NCI-H226 cells assessed as assessed as growth inhibition at 10^-5 M after 48 hrs by SRB assay relative to control; conditions: NCI-H226, 48 h, read-out: GI
# [23] = Cytotoxicity against human NCI-H460 cells assessed as assessed as growth inhibition at 10^-5 M after 48 hrs by SRB assay relative to control; conditions: NCI-H460, 48 h, read-out: GI
# [24] = Cytotoxicity against human SNB75 cells assessed as assessed as growth inhibition at 10^-5 M after 48 hrs by SRB assay relative to control; conditions: SNB-75, 48 h, read-out: GI
# [25] = Cytotoxicity against human U251 cells assessed as assessed as growth inhibition at 10^-5 M after 48 hrs by SRB assay relative to control; conditions: U-251, 48 h, read-out: GI
# [26] = Cytotoxicity against human MALME-3M cells assessed as assessed as growth inhibition at 10^-5 M after 48 hrs by SRB assay relative to control; conditions: read-out: GI
# [27] = Cytotoxicity against human SK-MEL-28 cells assessed as assessed as growth inhibition at 10^-5 M after 48 hrs by SRB assay relative to control; conditions: SK-MEL-28, 48 h, read-out: GI
# [28] = Cytotoxicity against human OVCAR3 cells assessed as assessed as growth inhibition at 10^-5 M after 48 hrs by SRB assay relative to control; conditions: OVCAR-3, 48 h, read-out: GI
# [29] = Cytotoxicity against human NCI-ADR-RES cells assessed as assessed as growth inhibition at 10^-5 M after 48 hrs by SRB assay relative to control; conditions: read-out: GI
# [30] = Cytotoxicity against human SKOV3 cells assessed as assessed as growth inhibition at 10^-5 M after 48 hrs by SRB assay relative to control; conditions: SK-OV-3, 48 h, read-out: GI
# [31] = Cytotoxicity against human A498 cells assessed as assessed as growth inhibition at 10^-5 M after 48 hrs by SRB assay relative to control; conditions: A498, 48 h, read-out: GI
# [32] = Cytotoxicity against human BT549 cells assessed as assessed as growth inhibition at 10^-5 M after 48 hrs by SRB assay relative to control; conditions: BT-549, 48 h, read-out: GI
# [33] = Cytotoxicity against human T47D cells assessed as assessed as growth inhibition at 10^-5 M after 48 hrs by SRB assay relative to control; conditions: read-out: GI
# [34] = Cytotoxicity against human NCI-H322M cells assessed as assessed as growth inhibition at 10^-5 M after 48 hrs by SRB assay relative to control; conditions: read-out: GI
smiles,measurement,setting,value
O=C1Cc2cc(CCn3cncn3)c(Cl)cc2N1,GI50,[1],3.5 µM
same,TGI,[1],> 1000 nM
same,CC50,[1],> 1000 nM
same,GI50,[2],7.68 µM
same,TGI,[2],> 1000 nM
same,CC50,[2],> 1000 nM
same,GI50,[3],1 µM
same,TGI,[3],> 1000 nM
same,CC50,[3],> 1000 nM
same,GI50,[4],1 µM
same,TGI,[4],> 1000 nM
same,CC50,[4],> 1000 nM
same,GI50,[5],2.99 µM
same,TGI,[5],> 1000 nM
same,CC50,[5],> 1000 nM
same,GI50,[6],1000 nM
same,TGI,[6],> 1000 nM
same,CC50,[6],> 1000 nM
same,GI50,[7],6.86 µM
same,TGI,[7],> 1000 nM
same,CC50,[7],> 1000 nM
same,GI50,[8],9.59 µM
same,TGI,[8],> 1000 nM
same,CC50,[8],> 1000 nM
same,GI50,[9],6.6 µM
same,TGI,[9],> 1000 nM
same,CC50,[9],> 1000 nM
same,GI50,[10],3.22 µM
same,TGI,[10],> 1000 nM
same,CC50,[10],> 1000 nM
same,GI50,[11],2100 nM
same,TGI,[11],> 1000 nM
same,CC50,[11],> 1000 nM
same,GI50,[12],2.07 µM
same,TGI,[12],> 1000 nM
same,CC50,[12],> 1000 nM
same,GI50,[13],1000 nM
same,TGI,[13],> 1000 nM
same,CC50,[13],> 1000 nM
same,GI50,[14],3250 nM
same,TGI,[14],> 1 µM
same,CC50,[14],> 1000 nM
same,GI50,[15],1000 nM
same,TGI,[15],> 1000 nM
same,CC50,[15],> 1000 nM
same,GI50,[16],1 µM
same,TGI,[16],> 1000 nM
same,CC50,[16],> 1000 nM
same,GI50,[17],4.02 µM
same,TGI,[17],> 1000 nM
same,CC50,[17],> 1000 nM
same,GI50,[18],7.2 µM
same,TGI,[18],> 1 µM
same,CC50,[18],> 1000 nM
same,GI50,[19],8.72 µM
same,TGI,[19],> 1000 nM
same,CC50,[19],> 1000 nM
same,GI50,[20],2180 nM
same,TGI,[20],9.54 µM
same,CC50,[20],> 1000 nM
same,inhibition of growth at 10 µM,[21],40.2%
same,inhibition of growth at 10 µM,[22],25.2%
same,inhibition of growth at 10 µM,[23],16.1%
same,inhibition of growth at 10 µM,[24],36.5%
same,inhibition of growth at 10 µM,[25],26.6%
same,inhibition of growth at 10 µM,[26],6.24%
same,inhibition of growth at 10 µM,[27],32.8%
same,inhibition of growth at 10 µM,[28],28.3%
same,inhibition of growth at 10 µM,[29],47.1%
same,inhibition of growth at 10 µM,[30],20.7%
same,inhibition of growth at 10 µM,[31],52.9%
same,inhibition of growth at 10 µM,[32],32%
same,inhibition of growth at 10 µM,[33],0.92%
same,inhibition of growth at 10 µM,[34],7.87%
O=C1Cc2cc(CCn3ccnc3)c(Cl)cc2N1,GI50,[1],3.37 µM
same,TGI,[1],> 1000 nM
same,CC50,[1],> 1000 nM
same,GI50,[2],8.26 µM
same,TGI,[2],> 1000 nM
same,CC50,[2],> 1000 nM
same,GI50,[3],5.67 µM
same,TGI,[3],> 1000 nM
same,CC50,[3],> 1000 nM
same,GI50,[4],9.24 µM
same,TGI,[4],> 1000 nM
same,CC50,[4],> 1000 nM
same,GI50,[5],3.32 µM
same,TGI,[5],> 1000 nM
same,CC50,[5],> 1000 nM
same,GI50,[6],4080 nM
same,TGI,[6],> 1000 nM
same,CC50,[6],> 1000 nM
same,GI50,[7],1.61 µM
same,TGI,[7],> 1000 nM
same,CC50,[7],> 1000 nM
same,GI50,[8],7.07 µM
same,TGI,[8],> 1000 nM
same,CC50,[8],> 1000 nM
same,GI50,[9],5.02 µM
same,TGI,[9],> 1000 nM
same,CC50,[9],> 1000 nM
same,CC50,[10],> 1000 nM
same,GI50,[11],2970 nM
same,TGI,[11],> 1000 nM
same,CC50,[11],> 1000 nM
same,GI50,[12],7.68 µM
same,TGI,[12],> 1000 nM
same,CC50,[12],> 1000 nM
same,GI50,[13],4500 nM
same,TGI,[13],> 1000 nM
same,CC50,[13],> 1000 nM
same,GI50,[14],2190 nM
same,TGI,[14],6.11 µM
same,CC50,[14],> 1000 nM
same,GI50,[15],2030 nM
same,TGI,[15],> 1000 nM
same,CC50,[15],> 1000 nM
same,GI50,[16],8.02 µM
same,TGI,[16],> 1000 nM
same,CC50,[16],> 1000 nM
same,GI50,[17],4.12 µM
same,TGI,[17],> 1000 nM
same,CC50,[17],> 1000 nM
same,GI50,[18],8.73 µM
same,TGI,[18],9.92 µM
same,CC50,[18],> 1000 nM
same,GI50,[19],9.51 µM
same,TGI,[19],> 1000 nM
same,CC50,[19],> 1000 nM
same,GI50,[20],2740 nM
same,TGI,[20],> 1 µM
same,CC50,[20],> 1000 nM
same,inhibition of growth at 10 µM,[21],33.3%
same,inhibition of growth at 10 µM,[22],10.7%
same,inhibition of growth at 10 µM,[23],52.6%
same,inhibition of growth at 10 µM,[24],31.7%
same,inhibition of growth at 10 µM,[25],32.7%
same,inhibition of growth at 10 µM,[26],2.24%
same,inhibition of growth at 10 µM,[27],32.2%
same,inhibition of growth at 10 µM,[28],36.5%
same,inhibition of growth at 10 µM,[29],54.3%
same,inhibition of growth at 10 µM,[30],21.4%
same,inhibition of growth at 10 µM,[31],32.2%
same,inhibition of growth at 10 µM,[32],30.3%
same,inhibition of growth at 10 µM,[33],5.51%
same,inhibition of growth at 10 µM,[34],9.68%
